From publication PMC5433425 (PeerJ, 2017)

System: E. coli AG100tet
Test: EtBr efflux by real-time fluorometry
Conditions: 80 µM
Description: Control tubes with only cells and cells with and without 0.4% glucose were included. The fluorescence was measured in a Rotor-Gene 3000 and the data was acquired every 30 s for 30 min at 37 °C. The efflux activity was quantified by comparing the fluorescence data obtained under conditions that promote efflux (presence of glucose and absence of efflux inhibitor) with the data from the control in which the bacteria are under conditions of no efflux (presence of an inhibitor and no energy source).

CN(C)CCCN1c2ccccc2Sc2ccc(Cl)cc21 [CPZ, chlorpromazine]
Fluorescence raw data, Channel Cycling A.530/585hp (cycle 17, without glucose): 8.041
Fluorescence raw data, Channel Cycling A.530/585hp (cycle 18, + glucose): 6.686
Fluorescence raw data, Channel Cycling A.530/585hp (cycle 18, without glucose): 8.027
Fluorescence raw data, Channel Cycling A.530/585hp (cycle 19, + glucose): 6.605
Fluorescence raw data, Channel Cycling A.530/585hp (cycle 19, without glucose): 8.219
Fluorescence raw data, Channel Cycling A.530/585hp (cycle 20, + glucose): 6.711
Fluorescence raw data, Channel Cycling A.530/585hp (cycle 20, without glucose): 8.174
Fluorescence raw data, Channel Cycling A.530/585hp (cycle 21, + glucose): 6.762
Fluorescence raw data, Channel Cycling A.530/585hp (cycle 21, without glucose): 8.255
Fluorescence raw data, Channel Cycling A.530/585hp (cycle 22, + glucose): 6.7278
Fluorescence raw data, Channel Cycling A.530/585hp (cycle 22, without glucose): 8.507
Fluorescence raw data, Channel Cycling A.530/585hp (cycle 23, + glucose): 6.745
Fluorescence raw data, Channel Cycling A.530/585hp (cycle 23, without glucose): 8.467
Fluorescence raw data, Channel Cycling A.530/585hp (cycle 24, + glucose): 6.771
Fluorescence raw data, Channel Cycling A.530/585hp (cycle 24, without glucose): 8.6
Fluorescence raw data, Channel Cycling A.530/585hp (cycle 25, + glucose): 6.796
Fluorescence raw data, Channel Cycling A.530/585hp (cycle 25, without glucose): 8.667
Fluorescence raw data, Channel Cycling A.530/585hp (cycle 26, + glucose): 6.92
Fluorescence raw data, Channel Cycling A.530/585hp (cycle 26, without glucose): 8.734
Fluorescence raw data, Channel Cycling A.530/585hp (cycle 27, + glucose): 6.8217
Fluorescence raw data, Channel Cycling A.530/585hp (cycle 27, without glucose): 8.768
Fluorescence raw data, Channel Cycling A.530/585hp (cycle 28, + glucose): 6.925
Fluorescence raw data, Channel Cycling A.530/585hp (cycle 28, without glucose): 8.988
Fluorescence raw data, Channel Cycling A.530/585hp (cycle 29, + glucose): 6.828
Fluorescence raw data, Channel Cycling A.530/585hp (cycle 29, without glucose): 9.111
Fluorescence raw data, Channel Cycling A.530/585hp (cycle 30, + glucose): 6.9
Fluorescence raw data, Channel Cycling A.530/585hp (cycle 30, without glucose): 8.957
Fluorescence raw data, Channel Cycling A.530/585hp (cycle 31, + glucose): 6.782
Fluorescence raw data, Channel Cycling A.530/585hp (cycle 31, without glucose): 9.091
Fluorescence raw data, Channel Cycling A.530/585hp (cycle 32, + glucose): 6.729
Fluorescence raw data, Channel Cycling A.530/585hp (cycle 32, without glucose): 9.229
Fluorescence raw data, Channel Cycling A.530/585hp (cycle 33, + glucose): 6.907
Fluorescence raw data, Channel Cycling A.530/585hp (cycle 33, without glucose): 9.3007
Fluorescence raw data, Channel Cycling A.530/585hp (cycle 34, + glucose): 6.901
Fluorescence raw data, Channel Cycling A.530/585hp (cycle 34, without glucose): 9.345
Fluorescence raw data, Channel Cycling A.530/585hp (cycle 35, + glucose): 6.783
Fluorescence raw data, Channel Cycling A.530/585hp (cycle 35, without glucose): 9.405
Fluorescence raw data, Channel Cycling A.530/585hp (cycle 36, + glucose): 6.785
Fluorescence raw data, Channel Cycling A.530/585hp (cycle 36, without glucose): 9.367
Fluorescence raw data, Channel Cycling A.530/585hp (cycle 37, + glucose): 6.975
Fluorescence raw data, Channel Cycling A.530/585hp (cycle 37, without glucose): 9.488
Fluorescence raw data, Channel Cycling A.530/585hp (cycle 38, + glucose): 6.976
Fluorescence raw data, Channel Cycling A.530/585hp (cycle 38, without glucose): 9.581
Fluorescence raw data, Channel Cycling A.530/585hp (cycle 39, + glucose): 6.681
Fluorescence raw data, Channel Cycling A.530/585hp (cycle 39, without glucose): 9.571
Fluorescence raw data, Channel Cycling A.530/585hp (cycle 40, + glucose): 6.952
Fluorescence raw data, Channel Cycling A.530/585hp (cycle 40, without glucose): 9.707
Fluorescence raw data, Channel Cycling A.530/585hp (cycle 41, + glucose): 6.766
Fluorescence raw data, Channel Cycling A.530/585hp (cycle 41, without glucose): 9.731
Fluorescence raw data, Channel Cycling A.530/585hp (cycle 42, + glucose): 6.916
Fluorescence raw data, Channel Cycling A.530/585hp (cycle 42, without glucose): 9.718
Fluorescence raw data, Channel Cycling A.530/585hp (cycle 43, + glucose): 6.844
Fluorescence raw data, Channel Cycling A.530/585hp (cycle 43, without glucose): 9.8689
Fluorescence raw data, Channel Cycling A.530/585hp (cycle 44, + glucose): 6.82
Fluorescence raw data, Channel Cycling A.530/585hp (cycle 44, without glucose): 9.768
Fluorescence raw data, Channel Cycling A.530/585hp (cycle 45, without glucose): 9.807
Fluorescence raw data, Channel Cycling A.530/585hp (cycle 46, without glucose): 9.797
Fluorescence raw data, Channel Cycling A.530/585hp (cycle 47, without glucose): 9.663
Fluorescence raw data, Channel Cycling A.530/585hp (cycle 48, without glucose): 9.794
Fluorescence raw data, Channel Cycling A.530/585hp (cycle 49, without glucose): 9.745
Fluorescence raw data, Channel Cycling A.530/585hp (cycle 50, without glucose): 9.769
Fluorescence raw data, Channel Cycling A.530/585hp (cycle 51, without glucose): 9.982
Fluorescence raw data, Channel Cycling A.530/585hp (cycle 52, without glucose): 9.725
Fluorescence raw data, Channel Cycling A.530/585hp (cycle 53, without glucose): 9.758
Fluorescence raw data, Channel Cycling A.530/585hp (cycle 54, without glucose): 9.768
Fluorescence raw data, Channel Cycling A.530/585hp (cycle 55, without glucose): 9.755
Fluorescence raw data, Channel Cycling A.530/585hp (cycle 56, without glucose): 9.766
Fluorescence raw data, Channel Cycling A.530/585hp (cycle 57, without glucose): 9.676
Fluorescence raw data, Channel Cycling A.530/585hp (cycle 58, without glucose): 9.567
Fluorescence raw data, Channel Cycling A.530/585hp (cycle 59, without glucose): 9.679
Fluorescence raw data, Channel Cycling A.530/585hp (cycle 60, without glucose): 9.626
Fluorescence raw data, Channel Cycling A.530/585hp (cycle 61, without glucose): 9.5963
